# Reference: publication PMC6813925, “Zearalenone and ß-Zearalenol But Not Their Glucosides Inhibit Heat Shock Protein 90 ATPase Activity” (Frontiers in Pharmacology, 2019)
# Columns and labels:
# TaHSP90-2 = TaHSP90-2 (Triticum aestivum, UniProt A0ACM8QAI9); experiment: biochemical; conditions: for remaining activity at 100 µM: read-out: remaining (residual) ATPase activity of TaHSP90-2; for ATPase inhibition of TaHSP90-2: Figure 4B-D
# Source text: (§1) For initial experiments, we expressed and purified the Saccharomyces cerevisiae ScHsp82 protein. The HSP82 coding region was amplified using the primer pair HSP82-1fwd (5’-[…]-3’) and HSP82-2rev (5’-[…]-3’), which contain BamHI and HindIII sites (underlined), respectively. The resulting 2,156 bp fragment was digested with BamHI and HindIII and ligated into the expression vector pQE-80L (Qiagen) cleaved with the same enzymes yielding plasmid pGW870. The coding region of AtHSP90.1 (At5g52640) was amplified from cDNA with the oligonucleotide primers 5’-[…]-3’ and 5’-[…]-3’. The resulting PCR product was digested with NdeI and SpeI (restriction sites on primers underlined) and introduced to pQE-80L (Qiagen), cleaved with the same enzymes to obtain the construct pQE80:AtHSP90.1. The cDNA of wheat HSP90 gene TaHSP90-2 (Triticum aestivum; DQ665784.1) was amplified with 5’-[…]-3’ and 5’-[…]-3’ (NdeI and SpeI, respectively) and introduced to pQE-80L. All constructs were verified by sequencing.
# (§2) Protein production was induced by isopropyl β-D-1-thiogalactopyranoside (IPTG) following the supplier’s instructions. Protein purification was performed on an Äkta system (GE Healthcare, Uppsala, Sweden). […] Further purification was done by anion exchange chromatography on a 1 ml Resource Q column (GE Healthcare). Proteins were bound to the column in 25 mM Tris/Cl pH 7.5 and eluted with a linear gradient of 0–1 M NaCl in 15 column volumes. The obtained fractions were desalted using a Sephadex™ G-25 fine column, and the purified recombinant proteins were stored in the final elution buffer (25 mM Tris/Cl pH 7.5) at 4°C.
# (§3) The ATPase activities of recombinant proteins AtHSP90.1, TaHSP90-2, and ScHsp82 were assayed following the method of [Rowlands et al. (2004)] using an ATP concentration of 1 mM. The effect of several potential inhibitors was tested in 96-well plates using toxin concentrations ranging from 1 to 150 µM. All compounds were dissolved in 20% DMSO and further diluted. The assays were performed in a total volume of 25 µl with a final protein concentration of 0.2 µg/µl and 4% DMSO. Controls were incubated with the solvent DMSO without inhibitor. The reactions were incubated at 37°C for 3 h in the dark. After this time, the released inorganic phosphate was quantified with the malachite green colorimetric assay ([Rowlands et al., 2004]). The reaction was stopped by adding 10 µl of 34% sodium citrate to each well after 20 min incubation at room temperature, and the absorbance was measured at 620 nm.
# To test whether the yeast model reflects the situation in dicot and monocots plants, AtHSP90.1 and an HSP90 protein from wheat were expressed and purified. The wheat cDNA previously named “TaHSP90-2” corresponds to UniProtKB Q0Q0I7 (Q0Q0I7_WHEAT). This gene belongs to a family of nine highly similar cytosolic HSP90 proteins of wheat, has been named HSP90.3-D1 in a functional study ([Wang et al., 2011]), and is located on chromosome 5D (= EnsemblPlants Traes_5DL_89CF7F5DE).
# ScHsp82p = biological target: T1, ScHsp82p (Saccharomyces cerevisiae, UniProt P02829); experiment: biochemical; format: biochemical; conditions: for remaining ATPase activity of ScHsp82p: at 100 µM, relative to DMSO control
# T1 construct: The HSP82 coding region was amplified using the primer pair HSP82-1fwd; 6xHis (N); made in house; host or cells: Escherichia coli BL21 (DE3) or phosphatase-deficient strain K894
# T1 sequence (P02829 whole entry): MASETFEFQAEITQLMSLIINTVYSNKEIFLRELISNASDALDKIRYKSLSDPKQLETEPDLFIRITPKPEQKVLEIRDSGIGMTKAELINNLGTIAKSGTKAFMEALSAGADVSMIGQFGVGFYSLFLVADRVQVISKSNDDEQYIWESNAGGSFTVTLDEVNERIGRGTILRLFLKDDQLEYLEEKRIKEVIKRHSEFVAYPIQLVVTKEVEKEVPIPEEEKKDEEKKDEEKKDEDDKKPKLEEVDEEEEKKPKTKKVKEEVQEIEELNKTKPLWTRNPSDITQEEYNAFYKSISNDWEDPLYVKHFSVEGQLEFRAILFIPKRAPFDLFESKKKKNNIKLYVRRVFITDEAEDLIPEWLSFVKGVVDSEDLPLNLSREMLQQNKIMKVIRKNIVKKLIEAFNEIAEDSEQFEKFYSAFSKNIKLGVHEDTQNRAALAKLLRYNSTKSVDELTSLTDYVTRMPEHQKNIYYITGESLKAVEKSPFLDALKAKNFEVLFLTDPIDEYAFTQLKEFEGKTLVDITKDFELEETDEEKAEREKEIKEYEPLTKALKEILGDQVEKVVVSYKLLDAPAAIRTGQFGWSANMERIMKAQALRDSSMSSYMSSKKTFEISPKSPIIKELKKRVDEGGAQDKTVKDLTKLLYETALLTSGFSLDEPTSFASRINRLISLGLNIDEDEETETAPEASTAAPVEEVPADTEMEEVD
# Source text: as §1, with “The resulting 2,156 bp fragment was digested with BamHI and HindIII and ligated into the expression vector pQE-80L (Qiagen) cleaved with the same enzymes yielding plasmid pGW870.” left out
# as §2
# All compounds were dissolved in 20% DMSO and further diluted. The assays were performed in a total volume of 25 µl with a final protein concentration of 0.2 µg/µl and 4% DMSO. Controls were incubated with the solvent DMSO without inhibitor. The reactions were incubated at 37°C for 3 h in the dark.
# [1] = tested on: Arabidopsis thaliana plants containing RPS2; parameters: method as in Takahashi et al., 2003; conditions: 10 μM; ref Takahashi et al., 2003; cited from earlier work
# [2] = Solubility and handling stability observations; format: physicochemical
# Source text: (§4) Previously, we had shown that AtUGT73C6, when expressed in a multiple-ABC-transporter–deficient yeast strain, leads to the production of ZEN-14-glucoside [old nomenclature ZEN-4-glucoside, [Metzler (2011)]] after ZEN treatment ([Poppenberger et al., 2006]). […] We therefore generated RAD-glucoside for in vitro tests. […] Therefore, we were unable to determine at which position RAD was glucosylated.
# yeast strain YZGA515 = experiment: Yeast spotting assay for RAD toxicity; format: cell-based, Saccharomyces cerevisiae; conditions: multiple-ABC-transporter-deficient yeast strain, SC-LEU plates with 40 mg/L RAD
# Source text: as §4
# Spotting of YZGA515 transformants (three serial 10^−1 dilutions) expressing either AtUGT73C6 (upper row) or containing the empty vector.
# [3] = Stability of glucosides under ATPase assay conditions (LC-MS/MS before and after incubation); format: physicochemical; conditions: LC-MS/MS before and after incubation period, p = 0.21
# Protocol: as §3
# Likewise, we found all glucosides of ZEN, αZEL, and βZEL stable under identical conditions, with recoveries of > 88%, p > 0.05, in each case.
# AtHSP90.1 [4] = biological target: T2, AtHSP90.1 (Arabidopsis thaliana, UniProt P27323); experiment: HSP90 ATPase activity assay (malachite green), AtHSP90.1; format: biochemical
# T2 construct: The coding region of AtHSP90.1 (At5g52640) was amplified from cDNA; 6xHis; made in house; host or cells: Escherichia coli BL21 (DE3) or phosphatase-deficient strain K894
# T2 sequence (P27323 whole entry): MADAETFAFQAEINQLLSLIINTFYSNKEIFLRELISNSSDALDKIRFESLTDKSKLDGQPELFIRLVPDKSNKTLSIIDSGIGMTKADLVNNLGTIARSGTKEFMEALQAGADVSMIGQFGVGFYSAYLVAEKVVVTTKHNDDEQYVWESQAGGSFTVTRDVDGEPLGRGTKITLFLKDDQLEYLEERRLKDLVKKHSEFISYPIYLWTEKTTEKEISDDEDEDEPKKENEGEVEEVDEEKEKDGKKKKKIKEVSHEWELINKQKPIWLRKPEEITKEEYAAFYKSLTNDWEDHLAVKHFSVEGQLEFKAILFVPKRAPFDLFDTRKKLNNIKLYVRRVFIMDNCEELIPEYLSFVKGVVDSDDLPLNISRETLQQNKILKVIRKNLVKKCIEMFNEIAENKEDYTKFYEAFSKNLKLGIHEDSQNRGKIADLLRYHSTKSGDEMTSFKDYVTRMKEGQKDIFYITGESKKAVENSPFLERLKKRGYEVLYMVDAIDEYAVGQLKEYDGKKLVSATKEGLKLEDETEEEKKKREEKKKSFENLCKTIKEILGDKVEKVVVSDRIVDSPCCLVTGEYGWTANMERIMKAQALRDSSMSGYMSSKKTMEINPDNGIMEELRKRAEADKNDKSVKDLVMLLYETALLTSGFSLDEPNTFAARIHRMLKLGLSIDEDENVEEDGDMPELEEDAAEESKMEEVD
# Source text: as §1, §2
# The ATPase activities of recombinant proteins AtHSP90.1, TaHSP90-2, and ScHsp82 were assayed following the method of [Rowlands et al. (2004)] using an ATP concentration of 1 mM. […] After this time, the released inorganic phosphate was quantified with the malachite green colorimetric assay ([Rowlands et al., 2004]). The reaction was stopped by adding 10 µl of 34% sodium citrate to each well after 20 min incubation at room temperature, and the absorbance was measured at 620 nm. […]
# AtHSP90.1 [5] = tested on: AtHSP90.1; parameters: method as in Werner, 2005; conditions: 50 µM, 2 h, vs DMSO; ref Werner, 2005; cited from earlier work
# AtHSP90.1 [6] = experiment: Quantitative real-time PCR of AtHSP90.1 in seedlings; format: cell-based, Arabidopsis thaliana; conditions: 50 µM, 2 h, vs mock control DMSO, reference gene AT5G46630
# Protocol: A. thaliana (ecotype Columbia, Col-0) seeds were surface-sterilized using sodium hypochlorite (2%) plus 0.01% Triton X for 10 min and rinsed twice with sterile water. Seeds were distributed in 24-well plates (4 wells per treatment, 30–40 seeds per well) and re-suspended in 1 ml (per well) of liquid Murashige and Skoog medium (“MS” basal salt mixture, Sigma) supplemented with 1% sucrose. After 2 days of stratification at 4°C, the plates were transferred to a growth chamber at 21°C under a 16 h light/8 h dark photoperiod.
# Total RNA was extracted from 13-day-old A. thaliana (Col-0) seedlings grown in liquid MS medium supplemented with 2.5% sucrose and 50 μM ZEN for 2 h. […] RNA was quantified with the Qubit (Invitrogen) and NanoDrop (Peqlab) systems. […] Absolute and relative expression were calculated with a dilution series of purified AtHSP90.1 and AP2M PCR fragments of known molar concentration in each RT-qPCR run. […] Each sample was measured in triplicate from four independent cDNAs. […]
# Figure 2 Transcriptional response of Arabidopsis thaliana HSP90 genes to zearalenone (ZEN). […] (B) Quantitative real-time PCR of A. thaliana HSP90.1 after 2 h treatment with ZEN (50 µM) or DMSO. The results are expressed as relative expression to the reference gene ADAPTOR PROTEIN-2 MU-ADAPTIN (AP2M; AT5G46630) and represent the means of four biological replicates ± standard deviation.
# Chain of TaHSP90-2 (A0ACM8QAI9 1-700): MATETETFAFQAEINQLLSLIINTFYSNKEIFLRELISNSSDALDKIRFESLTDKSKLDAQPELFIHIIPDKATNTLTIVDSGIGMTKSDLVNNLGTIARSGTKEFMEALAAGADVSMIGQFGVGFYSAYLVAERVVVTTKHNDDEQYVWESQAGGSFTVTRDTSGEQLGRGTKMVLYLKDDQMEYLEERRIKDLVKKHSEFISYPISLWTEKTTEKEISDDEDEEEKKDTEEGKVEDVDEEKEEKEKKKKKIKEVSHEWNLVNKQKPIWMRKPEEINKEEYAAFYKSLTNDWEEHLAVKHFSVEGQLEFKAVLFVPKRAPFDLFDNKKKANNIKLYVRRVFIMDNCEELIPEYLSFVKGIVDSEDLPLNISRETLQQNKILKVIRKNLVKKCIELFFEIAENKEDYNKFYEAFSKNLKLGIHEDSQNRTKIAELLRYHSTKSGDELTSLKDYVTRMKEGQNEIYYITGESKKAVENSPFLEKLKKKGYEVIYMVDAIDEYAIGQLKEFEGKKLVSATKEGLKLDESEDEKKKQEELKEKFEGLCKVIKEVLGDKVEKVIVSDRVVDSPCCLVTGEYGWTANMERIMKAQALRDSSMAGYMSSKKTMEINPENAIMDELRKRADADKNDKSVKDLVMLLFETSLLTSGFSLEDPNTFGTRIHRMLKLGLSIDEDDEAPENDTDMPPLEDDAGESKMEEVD
compound,measurement,setting,value
"C[C@H]1CCC[C@@H](O)CCC/C=C/c2cc(O)cc(O)c2C(=O)O1 [ßZEL, ß-zearalenol]",IC50,TaHSP90-2,~10 µM
same,remaining activity at 100 µM,TaHSP90-2,0.7 ± 3.3%
same,remaining ATPase activity of ScHsp82p,ScHsp82p,8.6 ± 2.4%
same,IC50,"ScHsp82p; recombinant 6xHis ScHsp82p, 1 mM ATP, 37°C, 3 h, read-out: IC50, ATPase inhibition of ScHsp82p",~15 µM
"C[C@H]1CCCC(=O)CCC/C=C/c2cc(O)cc(O[C@@H]3O[C@H](CO)[C@@H](O)[C@H](O)[C@H]3O)c2C(=O)O1 [ZEN16G, zearalenone-16-O-ß-D-glucopyranoside]",ATPase inhibition of TaHSP90-2,TaHSP90-2,did not cause activity reduction
COC1=C2C[C@@H](C)C[C@H](OC)[C@H](O)[C@@H](C)/C=C(\C)[C@H](OC(N)=O)[C@@H](OC)/C=C\C=C(/C)C(=O)NC(=CC1=O)C2=O [geldanamycin],hypersensitive response triggered by Pseudomonas syringae DC3000 (avrRpt2),[1],diminished
"C[C@@H]1C[C@H]2O[C@@H]2/C=C\C=C\C(=O)Cc2c(Cl)c(O)cc(O)c2C(=O)O1 [RAD, radicicol, reference compound]",solubility in medium,[2]; yeast culture medium,limited solubility
same,toxicity to yeast strain,yeast strain YZGA515,toxic
radicicol-glucoside [RAD-glucoside],stability on handling,[2]; particularly when brought to dryness,appears unstable
same,change in concentration under assay conditions,[3],no significant
"C[C@H]1CCC[C@H](O)CCC/C=C/c2cc(O)cc(O)c2C(=O)O1 [αZEL, α-zearalenol]",remaining activity at 100 µM,TaHSP90-2,71 ± 6%
same,ATPase inhibition of ScHsp82p,ScHsp82p; toxin concentrations 1 to 150 µM,did not elicit a detectable response
"C[C@H]1CCCC(=O)CCC/C=C/c2cc(O[C@@H]3O[C@H](CO)[C@@H](O)[C@H](O)[C@H]3O)cc(O)c2C(=O)O1 [ZEN14G, zearalenone-14-O-ß-D-glucopyranoside]",ATPase inhibition of TaHSP90-2,TaHSP90-2,did not cause activity reduction
same,ATPase inhibition of AtHSP90.1,"AtHSP90.1 [4]; 100 µM, p = 0.75",inactive
"C[C@H]1CCCC(=O)CCC/C=C/c2cc(O)cc(O)c2C(=O)O1 [ZEN, zearalenone]",IC50,TaHSP90-2,20 µM
same,remaining activity at 100 µM,TaHSP90-2,12 ± 5%
same,induction of AtHSP90.1 (microarray),AtHSP90.1 [5],about 3.7 fold
same,IC50,AtHSP90.1 [4],~10 µM
same,remaining ATPase activity of AtHSP90.1,AtHSP90.1 [4]; at 100 µM,18 ± 6%
same,induction of AtHSP90.1 (quantitative real-time PCR),AtHSP90.1 [6],35 fold
same,remaining ATPase activity of ScHsp82p,ScHsp82p,59 ± 5%
